Like-named read-outs stand apart in the source and are kept apart here.
Legend:
[1] = target: T1, AChE (Homo sapiens, UniProt P22303); conditions: cited from earlier work
Target sequence in this assay (P22303 32-614): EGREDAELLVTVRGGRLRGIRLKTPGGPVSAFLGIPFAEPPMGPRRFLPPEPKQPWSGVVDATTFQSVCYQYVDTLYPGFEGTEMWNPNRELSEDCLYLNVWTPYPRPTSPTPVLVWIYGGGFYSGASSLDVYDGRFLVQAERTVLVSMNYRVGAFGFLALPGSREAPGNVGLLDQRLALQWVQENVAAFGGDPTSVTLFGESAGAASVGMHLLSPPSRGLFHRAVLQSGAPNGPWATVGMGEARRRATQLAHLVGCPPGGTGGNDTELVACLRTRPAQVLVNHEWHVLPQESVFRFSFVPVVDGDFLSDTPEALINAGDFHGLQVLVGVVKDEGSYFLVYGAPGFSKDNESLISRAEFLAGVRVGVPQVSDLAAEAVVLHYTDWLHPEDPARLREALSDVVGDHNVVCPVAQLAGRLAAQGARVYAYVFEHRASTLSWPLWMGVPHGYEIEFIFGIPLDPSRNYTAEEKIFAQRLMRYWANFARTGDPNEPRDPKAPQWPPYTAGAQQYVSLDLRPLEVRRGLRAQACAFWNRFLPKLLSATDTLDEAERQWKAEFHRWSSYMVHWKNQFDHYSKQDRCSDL

[2] = target: T1, AChE; conditions: for k21 × 10^6 (decarbamoylation rate constant): 25 °C, absence of carbamate, mean ± SEM of n measurements
Target sequence in this assay (P22303 32-617 isoform P22303-2 limits assumed): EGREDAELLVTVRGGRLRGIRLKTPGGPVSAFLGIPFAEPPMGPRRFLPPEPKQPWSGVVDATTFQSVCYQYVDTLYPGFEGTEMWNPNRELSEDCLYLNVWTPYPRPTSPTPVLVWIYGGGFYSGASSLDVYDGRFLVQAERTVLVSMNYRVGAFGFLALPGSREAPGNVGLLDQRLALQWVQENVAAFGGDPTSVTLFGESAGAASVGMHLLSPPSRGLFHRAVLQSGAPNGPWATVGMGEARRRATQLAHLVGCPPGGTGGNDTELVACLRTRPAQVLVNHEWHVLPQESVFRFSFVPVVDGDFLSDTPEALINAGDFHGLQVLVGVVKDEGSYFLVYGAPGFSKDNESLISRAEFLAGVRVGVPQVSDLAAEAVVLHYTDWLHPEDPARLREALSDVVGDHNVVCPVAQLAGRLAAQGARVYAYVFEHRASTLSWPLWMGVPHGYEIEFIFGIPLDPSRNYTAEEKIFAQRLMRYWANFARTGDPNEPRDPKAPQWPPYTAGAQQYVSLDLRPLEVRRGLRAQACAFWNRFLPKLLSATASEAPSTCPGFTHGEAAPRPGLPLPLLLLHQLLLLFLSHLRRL

[3] = test system: AChE in rat brain; conditions: in vivo, 37 °C; cited from earlier work
[4] = target: T1, AChE; assay: Solvent deuterium oxide kinetic isotope effect on decarbamoylation; format: biochemical; conditions: 25 °C, pH 7.0, mean ± SE
Target sequence in this assay (P22303 32-617 isoform P22303-2 limits assumed): as above

[5] = target: T1, AChE; conditions: after carbamoylation of hAChE; cited from earlier work
Target sequence in this assay (P22303 32-617 isoform P22303-2 limits assumed): as above

[6] = target: T1, AChE; assay: Literature carbamoylation and decarbamoylation of AChE; format: biochemical
Target sequence in this assay (P22303 32-614): as the sequence (P22303 32-614) above

[7] = target: T1, AChE; assay: Carbamoylation of AChE, qualitative observations; format: biochemical
Target sequence in this assay (P22303 32-614): as above

[8] = Stability of aqueous solutions; format: physicochemical
[9] = target: T1, AChE; format: biochemical
Target sequence in this assay (P22303 32-617 isoform P22303-2 limits assumed): as the sequence (P22303 32-617 isoform P22303-2 limits assumed) above

[10] = k12 data fitted to Eq. 1a, 25 °C

CCN(CC)C(=O)F [N,N-diethyl F, N,N-diethylcarbamoyl fluoride]
Formation of N,N-diethylcarbamoylated AChE [1]: failed to detect
k21 × 10^6 (decarbamoylation rate constant) ([2]; second protocol): 7 ± 1 min^−1
Recovery half time of AChE [3]: 182 h

CCN(CC)C(=O)Oc1cccc([N+](C)(C)C)c1 [N,N-diethyl HTMA]
k21 × 10^6 (decarbamoylation rate constant) ([2]; second protocol): 16 ± 5 min^−1
k21 ^H2O / k21^D2O (deuterium oxide kinetic isotope effect on k21) [4]: 1.1 ± 0.2

CCN(CC)C(=O)OCC[N+](C)(C)C [N,N-diethylcarbamoyl choline, reference compound]
Formation of N,N-diethylcarbamoylated AChE [1]: failed to detect

CNC(=O)Oc1cccc2ccccc12 [carbaryl, reference compound]
k21 × 10^6 (decarbamoylation rate constant) ([2]; second protocol): 11300 ± 600 min^−1

C[C@@H]1CN(CCCCCCCCNC(=O)Oc2ccc3c(c2)[C@]2(C)CCN(C)[C@@H]2N3C)C[C@H](C)O1 [MF268]
k21 [5]: too small to be measured

CN(C)C(=O)Oc1cccc([N+](C)(C)C)c1 [neostigmine, reference compound]
k21 × 10^6 (decarbamoylation rate constant) ([2]; second protocol): 3600 ± 300 min^−1
k21 ^H2O / k21^D2O (deuterium oxide kinetic isotope effect on k21) [4]: 2.4 ± 0.2

C[N+](C)(C)CCOC(N)=O [carbamoyl choline]
k21 larger than that for N-monomethylcarbamoylated AChE [6]: 10 fold

CCN(C)C(=O)Cl [EMCC, N-ethyl–N-methylcarbamoyl chloride]
Carbamoylation of AChE [7]: poorly
Stability of aqueous solutions [8]: very unstable

CCN(C)C(=O)Oc1cccc([N+](C)(C)C)c1 [N-ethyl-N-methyl HTMA]
k21 × 10^6 (decarbamoylation rate constant) ([2]; second protocol): 150 ± 20 min^−1
k21 ^H2O / k21^D2O (deuterium oxide kinetic isotope effect on k21) [4]: 1.8 ± 0.2

CNC(=O)Oc1cccc([N+](C)(C)C)c1 [Monomethyl neostigmine]
k21 × 10^6 (decarbamoylation rate constant) ([2]; second protocol): 12300 ± 400 min^−1
R (fraction of total enzyme carbamoylated at reaction initiation) ([2]; after spin column, Figure 3 fit): 0.90
k21 ([2]; second protocol, Figure 3a fit, 0.25 mM acetylthiocholine): 12.9 ± 0.02 × 10^−3 min^−1
k21 ^H2O / k21^D2O (deuterium oxide kinetic isotope effect on k21) ([4]; listed as N-monomethyl HTMA): 2.8 ± 0.2
k21 ^H2O / k21^D2O (deuterium oxide kinetic isotope effect on k21) ([4]; listed as N-monomethyl neostigmine): 2.8
k21 ([9]; first protocol, Figure 2, paper calls estimates below 0.01 min^−1 unreliable): 0.013 min⁻¹
k2/KD ([9]; fitted to Eq. 1a): 16 ± 2 min^−1μM^−1
Kd [9, 10]: 3.2 ± 0.4 µM
k2 (carbamoylation) [9, 10]: 51 ± 2 min⁻¹

Reference: publication PMC6204216 (Archives of biochemistry and biophysics, 2018)
